For orientation: MIC means the least concentration at which growth counts as inhibited. Read a high MIC as a less susceptible organism. Broadly, the HC50 is the concentration giving 50% haemolysis. The low end stands for more damage to red cells, the high end for less damage to red cells.

The values below come from publication PMC13183915, “A platinum butterfly effect: small changes turn an anticancer drug into a non-toxic metalloantibiotic with in vivo efficacy” (npj Antimicrobials and Resistance, 2026).

“And” between values parts separate entries of the source, which are not always exact repeats. Identical values can stand only once.

In one data set the test system is MRSA NRS 129. In words: Broth microdilution MIC, MRSA NRS 129. The following applies: MRSA NRS 129. Type of data set: cell-based, S. aureus. As for the experimental part: (§1) The data is given in supporting information (Table S5). Before starting the experiment, a single colony was picked from MHA plate, inoculated in MHBII and incubated overnight at 37 °C with shaking for 18–24 h to get the starter culture. Antibiotic susceptibility testing was conducted according to the CLSI (Clinical & Laboratory Standards Institute) guidelines using the broth microdilution assay. 10 mg/mL stock solutions of test compounds were prepared in DMSO. Bacterial cultures were inoculated in MHBII and optical density (OD) was measured at 600 nm, followed by dilution to achieve ~10^6 CFU/mL. The compounds were tested from 64 to 0.5 mg/L in two-fold serial diluted fashion with 2.5 μL of each concentration added to well of a 96-well round bottom microtiter plate. Later, 97.5 μL of bacterial suspension was added to each well containing either test compound or appropriate controls. […] The MIC is defined as the lowest concentration of the compound at which there is absence of visible growth. For each test compound, MIC determinations were carried out independently three times using duplicate samples.

For another data set, the system named is B. subtilis bSS82. As to the kind of experiment: Bacterial cytological profiling (BCP). Type of data set: cell-based, Bacillus subtilis. An excerpt: To get an overview of the cellular effects of the compounds, we employed bacterial cytological profiling (BCP). To this end, we used a strain intracellularly expressing green-fluorescent protein (GFP) from the strong, constitutive PrpsD promoter (B. subtilis bSS82[37]), stained with the membrane dye Nile red and the DNA dye DAPI. Combined with phase contrast microscopy, this setup allows simultaneous assessment of cell morphology, cell lysis, pore formation, membrane morphology, and nucleoid morphology in one assay.
BCP was performed according to Wenzel et al.[71]. In short, B. subtilis strain […] (PrpsD-gfp) was grown to an OD600 of 0.3 prior to splitting of parent cultures and addition of antibiotics. Samples were taken for microscopy after 30, 60, and 120 min of antibiotic treatment. Five minutes prior to sampling, cultures were stained with 0.5 µg/mL Nile red and 1 µg/mL DAPI for 5 min. Samples of 0.5 µL were then spotted onto 1% agarose slides[45] and images were taken immediately.
Cell length and DAPI intensity were analyzed using MicrobeJ[73]. To this end, the fit shape, rod-shaped setting was used with a minimum area of 0.5 µm, while all other settings remained at default. B. subtilis chains were seperated based on the membrane stain. Membrane stress was counted using the ObjectJ plugin[74], using the membrane setting to seperate individual cells in chains. Membrane damage was expressed as ratio of cells with visible Nile red foci and total detected cells. DNA compaction was analyzed by determining the area of the DNA and the whole cell are using advanced weka segmentation. Cells were segmented according to the GFP signal. […] Cells that were out of focus or lysed were excluded from the analysis. Statistical analysis was peformed using GraphPad Prism 10 as specified in the individual figure legends.

The subject of another data set is λ-phage DNA. As to the kind of experiment: Single-molecule imaging of YOYO-1-labeled λ-DNA, DNA length analysis. In kind it is biochemical.
A further data set relates to E. coli tolC. Further details: method as in PMID 34018686. The note with it: efflux-impaired mutant; cited from earlier work.
In data set [1] the test system is human red blood cells (RBC). As to the kind of experiment: Hemolysis assay in hRBCs. The note with it: 4 hours at 20 °C. Type of data set: cell-based.
Data set [2] concerns B. subtilis 168CA. In words: Optimal stressor concentration, acute shock growth curves. Type of data set: cell-based, Bacillus subtilis. The following applies: after compound addition.
Experimental: To establish a starting concentration for the OSC assay, MICs against parent strain 168CA were determined under conditions equivalent to those used for mode of action assays. […] MICs were used as basis for OSC determination. To this end, growth curves were recorded using optical density (OD) measurements. Culture volumes of 20 mL were grown until reaching an OD600 of 0.3. Subsequently, the parent culture was split into 2 ml aliquots, followed by addition of different MIC multiples of Pt compounds[71]. An untreated culture served as control. Growth was followed until cultures reached the stationary phase. A concentration achieving 50–70% growth inhibition in exponential phase was selected as optimal stressor concentration. […] As controls, 0.23 µM nisin, 0.53 µM µM gramicidin, 100 µM CCCP, 0.67 µM vancomycin, 1.2 µM rifampicin, and 323.12 µM chloramphenicol were included as controls for specific assays as appropriate.
Data set [3] has as its system methicillin-sensitive Staphylococcus aureus (MSSA), clinical isolate. In words: MIC assay, MSSA clinical isolate. The note with it: MSSA clinical isolate. Type of data set: cell-based.
A further data set relates to MRSA NRS 192. In words: Broth microdilution MIC, MRSA NRS 192. Type of data set: cell-based, S. aureus. The note with it: MRSA NRS 192. As for the experimental part:
as §1
On the technique in general: Dilution methods test growth across graded concentrations, often in twofold steps.

In data set [4] the test system is B. subtilis 168CA. In words: MIC against B. subtilis 168CA (mode of action conditions). In kind it is cell-based, Bacillus subtilis. The following applies: 16 h. As for the experimental part:
To establish a starting concentration for the OSC assay, MICs against parent strain 168CA were determined under conditions equivalent to those used for mode of action assays. MICs were determined according to the Clinical Laboratory Standardization Institute (CLSI) in a serial microdilution assay. […] Cultures were incubated for 16 h at 37 °C under constant agitation. MICs were used as basis for OSC determination. To this end, growth curves were recorded using optical density (OD) measurements. Culture volumes of 20 mL were grown until reaching an OD600 of 0.3. […] An untreated culture served as control. Growth was followed until cultures reached the stationary phase. A concentration achieving 50–70% growth inhibition in exponential phase was selected as optimal stressor concentration.

In data set [5] the test system is FtsZ (B. subtilis 2020, Pxyl-gfp-ftsZ). In words: Localization of FtsZ (cell division reporter). The note with it: 3.12 µM Pt1, 25 µM Pt8; 30 and 60 min. In kind it is cell-based, Bacillus subtilis. As for the experimental part:
(§2) B. subtilis strains were grown in LB containing appropriate inducer concentrations as specified in Table S10. After reaching an OD600 of 0.3, cultures were split and treated with antibiotics. Samples were withdrawn after 30 and 60 min of treatment, spotted on glass slides covered with 1% agarose films, and immediately imaged.
Figure S8: Localization of FtsZ in B. subtilis 2020 (Pxyl-gfp-ftsZ). Cultures were treated with
(1 picture or pasted object on this page, not shown here)

In another data set the test system is VRSA VRS 12. As to the kind of experiment: Broth microdilution MIC, VRSA VRS 12. Type of data set: cell-based, S. aureus. The note with it: VRSA VRS 12. As for the experimental part: as §1
Another data set concerns A. baumanii BAA 1605. In words: Broth microdilution MIC, A. baumannii BAA 1605. In kind it is cell-based, Acinetobacter baumannii. As for the experimental part:
as §1

For data set [6], the system named is RecA-GFP (B. subtilis UG10). In words: Localization of RecA-GFP (DNA damage reporter). In kind it is cell-based, Bacillus subtilis. The following applies: Pt1 3.125 µM, Pt8 25 µM, CisPt 100 µM; strongest after 10 min. As for the experimental part:
To confirm whether the compounds induce DNA damage in bacterial cells, the localization of RecA was assessed. RecA is part of the bacterial SOS response to DNA damage. It is a DNA-associated protein that recognizes single-stranded DNA, which occurs as a consequence of strand breaks. If strand breaks are present, RecA accumulates at the damaged sites, appearing as foci or elongated structures. Since the RecA response is strongest shortly after stress induction, we additionally examined a 10 min timepoint in this assay.
as §2

A further data set relates to S. aureus ATCC 29213. In words: Resistance induction by serial passage. In kind it is cell-based. The following applies: after 36 days at ½ MIC. As for the experimental part: The MICs of the passaged cultures were determined every 3 days and compared to that of wild type S. aureus ATCC 29213. MIC changes were recorded for 36 passages.
The mark [7] stands for this setting: 60 min, Pt1 3.125 µM, Pt8 25 µM, CisPt 100 µM.

On to `C1=C\CC/C=C\CC/1.[Cl][Pt][Cl]` [Pt1], for which the MIC is 0.125 – 0.25 µg/mL and 0.33–0.67 µM in the data set on MRSA NRS 129; 3.13 to 6.25 µM in data set [3]; 0.125 – 0.25 µg/mL and 0.33–0.67 µM in the data set on MRSA NRS 192; 6.25 µM with B. subtilis 168CA [4]; 0.67 to 1.34 µM against VRSA VRS 12; greater than 64 µg/mL against A. baumanii BAA 1605. Also, the “Nile red foci (membrane stress)” value in the data set with B. subtilis bSS82 (3.125 µM, not statistically supported) was “Nile red foci, indicating membrane stress, were observed”. In addition, the DAPI fluorescence intensity result with B. subtilis bSS82 (setting [7]) is on record as “significant reduction of the DAPI signal”. In the data set on B. subtilis bSS82 (setting [7]), the “nucleoid compaction (cell area vs DAPI-stained nucleoid area)” value was “clear nucleoid compaction”. Moreover, the “DNA molecule length shift” value in the data set with λ-phage DNA (3.125 µM Pt1, 25 µM Pt8, 100 µM CisPt, 10 min) was “shorter fragments”. Also, the “DNA fragmentation at swapped (equimolar comparison) concentrations” value in the data set with λ-phage DNA (25 µM Pt1, 3.125 µM Pt8) is reported as “stronger DNA fragmentation”. In addition, the antibacterial activity entry in the data set on E. coli tolC is “inactive”. This compound also had a concentration for 50% haemolysis (HC50) in [1] greater than 200 µM. Also, in the data set on B. subtilis 168CA [2], the “delay until the onset of growth inhibition” value is listed as ~ 30 min. Besides, the “localization of FtsZ” value in data set [5] was “remained unaffected”. For the same compound, the “RecA accumulation on nucleoids” value in data set [6] is “clear RecA accumulations”. This compound also gave an MIC after passaging in the data set with S. aureus ATCC 29213 of 0.25 µg/mL.
